In patent publication US20070191490A1, “Withacnistin compounds for treatment of cancer” (priority 2006, published 2007):

How the values were obtained:
phospho-Src = phospho-Src levels in A549 cells (Western blotting); assay type: cell-based, human; conditions: 10 μM, 4 hours
Description: (§1) Western blotting. Treated cell samples were lysed in 30 mM HEPES, pH 7.5, 10 mM NaCl, 5 mM MgCl2, 25 mM NaF, 1 mM EGTA, 1% Triton X-100, 10% glycerol, 2 mM sodium orthovanadate, 10 μg/ml aprotinin, 10μ/ml soybean trypsin inhibitor, 25 μg/ml leupeptin, 2 mM PMSF, and 6.4 mg/ml p-nitrophenylphosphate. Phospho-STAT3, phospho-AKT, phospho-Src, and phospho-p42/p44 MAPK antibodies were obtained from Cell Signaling Technologies (Cambridge, Mass., USA). Phospho-JNK and whole STAT3 antibodies were purchased from Santa Cruz Biotechnology (Santa Cruz, Calif., USA); phospho-JAK2 antibody came from Upstate Biotechnology (Lake Placid, N.Y., USA). Membranes were blocked in either 5% milk in phosphate-buffered saline (PBS), pH 7.4, containing 0.1% Tween-20 (PBS-T) or 1% BSA in tris-buffered saline (TBS), pH 7.5, containing 0.1% Tween-20 (TBS-T). Phospho-specific antibodies (excepting P-MAPK and P-JNK) were incubated in 1% BSA in TBS-T while all other antibodies were diluted in 5% milk in PBS-T for either 2 h at room temperature or overnight at 4° C. HRP-conjugated secondary antibodies (Jackson ImmunoResearch, West Grove, Pa., USA) were diluted in 5% milk in either PBS-T or TBS-T at 1:1000 dilution for 1 h at room temperature. […]
(§2) It was next determined whether withacnistin and the Cuc analogs are selective for the JAK2/STAT3 pathway over other signal transduction pathways. […]

phospho-Akt = phospho-Akt levels in A549 cells (Western blotting); assay type: cell-based, human; conditions: 10 μM, 4 hours
Description: as §1, §2

phospho-Erk1/2 = phospho-Erk1/2 levels in A549 cells (Western blotting); assay type: cell-based, human; conditions: 10 μM
Description: as §1, §2

v-Src/3T3 cells = assay: TUNEL apoptosis assay, v-Src/3T3; assay type: cell-based, murine; conditions: 10 μM withacnistin mixture, 24 hours
Description: (§3) In vitro cellular proliferation and TUNEL assays. Subconfluent A549, MDA-MB-435, MDA-MB-453, MDAMB-468, v-Src transformed NIH 3T3 (v-Src/3T3), H-Ras transformed NIH 3T3 (H-Ras/3T3), and vector NIH 3T3 cells were grown in the presence of 10 μM cucurbitacin A, cucurbitacin I, withacnistin mixture, or DMSO vehicle control. After 24 hours, cells were harvested by trypsinization and counted via trypan blue exclusion assay to determine cellular viability. In all, 75,000-150,000 cells (depending on cell line) were then spun onto glass slides using a Cytospin 3 centrifuge (Thermo Shandon Inc., Pittsburgh, Pa., USA). After fixing cells to the slides with 4% paraformaldehyde in PBS, pH 7.5, for 1 h at room temperature, cells were labeled for apoptotic DNA strand breaks by TUNEL reaction using an in situ cell death detection kit (Roche Applied Science, Indianapolis, Ind., USA) according to the manufacturer's instructions, then mounted in Vectashield mounting medium (Vector Laboratories, Burlingame, Calif., USA) containing 4′,6-diamidino-2-phenylindole (DAPI) to counterstain DNA. […] TUNELpositive nuclei were counted and compared to DAPI-stained nuclei to determine the percent induction of apoptosis by the different cucurbitacin compounds. Statistical significance between control and treated tumors were evaluated by using Student's t-test. […]

H-Ras/3T3 cells = assay: TUNEL apoptosis assay, H-Ras/3T3; assay type: cell-based, murine; conditions: 10 μM withacnistin mixture, 24 hours
Description: as §3

vector/3T3 cells = assay: TUNEL apoptosis assay, vector NIH 3T3; assay type: cell-based, murine; conditions: 10 μM withacnistin mixture, 24 hours
Description: as §3

Src kinase = Src kinase (Homo sapiens, UniProt P12931); assay: Src kinase inhibition in vitro; assay type: biochemical; conditions: data not shown
Chain of Src kinase (P12931 whole entry): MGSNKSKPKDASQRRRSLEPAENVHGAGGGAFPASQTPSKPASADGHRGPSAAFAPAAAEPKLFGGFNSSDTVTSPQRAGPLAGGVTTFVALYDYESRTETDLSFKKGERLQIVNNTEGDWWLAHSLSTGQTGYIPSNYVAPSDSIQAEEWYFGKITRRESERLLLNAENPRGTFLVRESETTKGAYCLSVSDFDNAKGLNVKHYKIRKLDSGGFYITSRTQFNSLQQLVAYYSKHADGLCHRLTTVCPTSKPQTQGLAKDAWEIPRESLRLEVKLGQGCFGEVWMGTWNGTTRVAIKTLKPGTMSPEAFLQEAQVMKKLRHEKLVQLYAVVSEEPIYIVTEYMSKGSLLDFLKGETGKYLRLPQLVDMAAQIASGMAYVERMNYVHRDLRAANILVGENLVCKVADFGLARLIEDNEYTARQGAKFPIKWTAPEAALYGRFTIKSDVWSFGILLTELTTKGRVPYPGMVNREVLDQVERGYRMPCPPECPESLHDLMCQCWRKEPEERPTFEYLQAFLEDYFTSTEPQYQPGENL
Text: The actual biochemical targets for cucurbitacins are not known. […] Possible tyrosine kinases that could be targets are the Src family of kinases. Src kinase itself was not inhibited in vitro by Cuc I (Blaskovich, M. A. et al. Cancer Res., 2003, 63:1270-1279) and withacnistin (data not shown).

STAT3 = target: T1, STAT3 (Homo sapiens, UniProt P40763); assay: Growth factor/cytokine stimulation of STAT3 tyrosine phosphorylation; assay type: cell-based
T1 construct: endogenous in cells; host or cells: U266; MDA-MB-468
T1 sequence (P40763 2-770 limits assumed): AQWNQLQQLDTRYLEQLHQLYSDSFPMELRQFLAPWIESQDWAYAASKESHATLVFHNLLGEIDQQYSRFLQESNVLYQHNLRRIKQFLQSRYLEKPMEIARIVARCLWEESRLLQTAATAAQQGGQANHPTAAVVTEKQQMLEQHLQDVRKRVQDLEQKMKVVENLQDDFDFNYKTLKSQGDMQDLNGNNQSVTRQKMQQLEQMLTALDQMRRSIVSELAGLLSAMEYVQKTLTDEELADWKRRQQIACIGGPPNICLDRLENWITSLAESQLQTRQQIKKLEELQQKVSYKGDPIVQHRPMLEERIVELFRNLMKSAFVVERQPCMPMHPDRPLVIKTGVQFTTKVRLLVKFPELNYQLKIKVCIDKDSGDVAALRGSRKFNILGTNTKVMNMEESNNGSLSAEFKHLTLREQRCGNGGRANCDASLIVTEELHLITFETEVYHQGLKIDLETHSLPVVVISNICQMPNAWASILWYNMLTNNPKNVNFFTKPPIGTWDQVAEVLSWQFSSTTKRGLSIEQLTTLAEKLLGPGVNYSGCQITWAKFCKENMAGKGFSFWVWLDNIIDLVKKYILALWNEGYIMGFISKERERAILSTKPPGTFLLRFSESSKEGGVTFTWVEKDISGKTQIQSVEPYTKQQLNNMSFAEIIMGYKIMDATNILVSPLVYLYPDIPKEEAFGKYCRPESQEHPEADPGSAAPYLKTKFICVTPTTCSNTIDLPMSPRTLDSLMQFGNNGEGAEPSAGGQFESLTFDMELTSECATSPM
Description: (§4) Furthermore, it is not know whether Wit suppresses constitutive or stimulated P-STAT3 levels selectively over other STAT family members such as STAT1 and STAT5. To this end, a variety of human cancer cell lines were treated with Wit and stimulated with growth factors or cytokines known to activate STAT family members as described under Methods. […] Pretreatment of U266 cells with W or WM blocked this IL-6 activation of STAT3 in a dose-dependent manner. In contrast, IL-6 activation of STAT1 in these cells was not affected by Wit pretreatment (FIG. 9B).

phosphotyrosine-STAT3 = assay: Inhibition of phosphotyrosine-STAT3 levels in tumor cell lines (Western blotting); assay type: cell-based, human; conditions: A549 cells, by 24 hours; data not shown
STAT1 = assay: Growth factor/cytokine stimulation of STAT1 tyrosine phosphorylation; assay type: cell-based, human; conditions: U266 cells, pretreatment
Description: as §4

## CC(=O)OC(C)(C)/C=C/C(=O)[C@](C)(O)[C@H]1[C@H](O)C[C@@]2(C)[C@@H]3CC=C4[C@@H](C[C@H](O)C(=O)C4(C)C)[C@]3(CO)C(=O)C[C@]12C [Cuc A, cucurbitacin A]
phospho-Src
  phosphotyrosine levels of Src: little inhibitory activity
phospho-Akt
  phosphotyrosine levels of Akt: little inhibitory activity

## CC(=O)OC[C@]12CC[C@H]3[C@@H](C[C@H]4O[C@]45[C@@H](O)C=CC(=O)[C@]35C)[C@@H]1CC[C@@H]2[C@H](C)[C@H]1CC(C)=C(C)C(=O)O1 [withacnistin]
phospho-Erk1/2
  levels of phosphorylated Erk1/2: significantly increased
v-Src/3T3 cells
  apoptosis (TUNEL-positive cells): 39.2±7.3%
  fold increase of apoptosis over control: 50.2 fold
H-Ras/3T3 cells
  apoptosis (TUNEL-positive cells): 7.3±4.7%
  fold increase of apoptosis over control: 12.5 fold
vector/3T3 cells
  apoptosis (TUNEL-positive cells): 7.3±3.9%
  fold increase of apoptosis over control: 4.2 fold
Src kinase
  inhibition of Src kinase in vitro: not inhibited
STAT3; MDA-MB-468 cells
  EGF activation of STAT3: inhibited
STAT3; U266 cells, pretreatment, dose-dependent
  IL-6 activation of STAT3 (tyrosine phosphorylation): blocked
STAT3; pretreatment (FIG. 9D)
  PDGF-stimulated tyrosine phosphorylation of STAT3: inhibited
phosphotyrosine-STAT3
  P-STAT3 levels: suppressed
STAT1
  IL-6 activation of STAT1: not affected
